These results are taken from patent US9376436B2, “2-(pyridin-2yl)-1, 7-diaza-spiro [4.4] nonane-6-one compound as voltage-gated sodium channels modulators” (CONVERGENCE PHARMACEUTICALS LIMITED, priority 2011, dated 2016).

For the experiment, the target named is T1, hNaV1.7 (Homo sapiens, UniProt Q15858).
T1 construct: expressed in transfected cells; host or cells: HEK293
The experiment is described as follows: QPatch NaV1.7 assay (whole-cell patch clamp, QPatch16x). The format is cell-based. The note with it: HEK293-hNaV1.7 cells. The protocol: The compounds of the invention were tested in a QPatch NaV1.7 assay.
HEK293-hNaV1.7 cells were grown in DMEM-F12+10% FBS culture media at 37° C. At a confluency of 50-70% cells were dissociated from culture flasks & triturated to ensure unicellular cell suspension; cell density was measured & adjusted to 2-3×10^6 cells/ml. Recordings were obtained using QPatch16x. The external solution was (in mM): NaCl, 128; KCl, 5; MgCl2, 2; CaCl2, 2; Glucose, 30; HEPES, 15; pH 7.3, 305-315 mOsm. Following seal formation and whole-cell access using internal solution (containing in mM: CsF, 135; EGTA/CsOH, 1/5; HEPES 10; NaCl, 10; pH 7.3, 310-320 mOsM), voltage pulse protocols were applied. Initially a steady state inactivation voltage protocol was used to determine the half-maximal voltage for steady state inactivation (V1/2 SSI). Two holding voltages were used to determine test drug inhibition: −90 mV, where most of the channels are in a closed state; and V1/2 SSI, where half of the channels are inactivated. Currents were elicited […] by stepping to a membrane potential of 0 mV for 20 ms. Four-point cumulative concentration responses were derived by determining the peak current amplitude at each concentration of test drug over 120 second application. Curves were fitted with the Hill equation yielding pIC50 values at −90 mV and V1/2 SSI holding potentials.

[1] abbreviates: holding voltage V1/2 SSI (half of channels inactivated), read-out: QP Nav1.7 SSI vhalf pIC50 (converted).
[2] abbreviates: holding voltage −90 mV (most channels closed), read-out: QP Nav1.7 −90 mV pIC50 (converted).

Where a name gives a salt, the structure may show the parent alone. Read-outs that look alike come from different tables or passages of the source.

T1 sequence (Q15858 whole entry): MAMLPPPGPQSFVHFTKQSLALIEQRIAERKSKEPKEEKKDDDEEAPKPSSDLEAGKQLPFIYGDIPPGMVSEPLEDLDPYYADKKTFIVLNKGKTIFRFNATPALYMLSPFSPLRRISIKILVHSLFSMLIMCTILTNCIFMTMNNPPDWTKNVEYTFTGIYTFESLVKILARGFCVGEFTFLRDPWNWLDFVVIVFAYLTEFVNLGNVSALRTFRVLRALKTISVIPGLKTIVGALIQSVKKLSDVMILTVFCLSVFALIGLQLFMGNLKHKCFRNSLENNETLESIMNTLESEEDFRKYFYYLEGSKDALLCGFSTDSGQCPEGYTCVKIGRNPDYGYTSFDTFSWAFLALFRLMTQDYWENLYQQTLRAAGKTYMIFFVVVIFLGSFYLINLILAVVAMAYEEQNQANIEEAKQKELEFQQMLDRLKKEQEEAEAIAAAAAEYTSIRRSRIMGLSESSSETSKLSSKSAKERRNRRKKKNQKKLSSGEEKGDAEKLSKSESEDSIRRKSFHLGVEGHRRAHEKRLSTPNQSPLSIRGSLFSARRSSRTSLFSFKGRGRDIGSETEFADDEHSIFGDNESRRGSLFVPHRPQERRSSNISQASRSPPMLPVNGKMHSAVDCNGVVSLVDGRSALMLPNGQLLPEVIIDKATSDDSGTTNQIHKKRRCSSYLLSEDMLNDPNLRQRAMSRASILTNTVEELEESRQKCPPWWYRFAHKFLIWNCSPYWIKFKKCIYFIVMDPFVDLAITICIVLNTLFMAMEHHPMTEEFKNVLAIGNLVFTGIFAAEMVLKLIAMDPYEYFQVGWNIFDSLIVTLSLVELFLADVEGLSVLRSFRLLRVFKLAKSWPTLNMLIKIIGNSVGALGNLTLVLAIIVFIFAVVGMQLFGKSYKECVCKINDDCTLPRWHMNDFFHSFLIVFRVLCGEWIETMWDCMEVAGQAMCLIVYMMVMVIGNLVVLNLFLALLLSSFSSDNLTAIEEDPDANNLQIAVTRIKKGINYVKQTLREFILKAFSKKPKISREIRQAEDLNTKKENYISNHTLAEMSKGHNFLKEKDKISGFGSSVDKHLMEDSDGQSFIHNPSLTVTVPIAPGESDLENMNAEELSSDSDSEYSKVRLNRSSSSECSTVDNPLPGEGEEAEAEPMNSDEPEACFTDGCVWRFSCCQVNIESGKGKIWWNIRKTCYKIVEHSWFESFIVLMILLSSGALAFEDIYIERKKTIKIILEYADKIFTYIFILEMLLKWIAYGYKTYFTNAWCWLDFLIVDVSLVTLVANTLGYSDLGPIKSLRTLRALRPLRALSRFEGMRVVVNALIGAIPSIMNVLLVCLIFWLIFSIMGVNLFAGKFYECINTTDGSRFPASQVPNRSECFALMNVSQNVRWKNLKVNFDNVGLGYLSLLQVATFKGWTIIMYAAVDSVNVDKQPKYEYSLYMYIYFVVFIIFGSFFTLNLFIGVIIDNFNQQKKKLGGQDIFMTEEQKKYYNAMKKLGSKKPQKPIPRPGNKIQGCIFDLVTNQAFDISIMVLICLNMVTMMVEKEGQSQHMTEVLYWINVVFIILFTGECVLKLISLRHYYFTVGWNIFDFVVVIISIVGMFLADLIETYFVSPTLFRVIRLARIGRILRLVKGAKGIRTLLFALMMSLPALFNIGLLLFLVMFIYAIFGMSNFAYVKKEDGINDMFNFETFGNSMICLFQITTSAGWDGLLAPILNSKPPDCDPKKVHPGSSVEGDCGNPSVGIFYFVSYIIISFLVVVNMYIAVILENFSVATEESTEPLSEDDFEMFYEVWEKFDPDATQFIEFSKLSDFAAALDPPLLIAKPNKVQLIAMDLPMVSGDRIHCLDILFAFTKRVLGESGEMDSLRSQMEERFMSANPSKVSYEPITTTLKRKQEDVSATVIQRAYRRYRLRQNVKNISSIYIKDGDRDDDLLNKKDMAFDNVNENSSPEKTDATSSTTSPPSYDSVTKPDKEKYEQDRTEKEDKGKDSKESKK

`CC(C)COc1ccc(F)c(-c2ccnc([C@H]3CC[C@@]4(CCN(C)C4=O)N3)c2)c1` [Example 253, (2R,5S)-2-[4-(2-Fluoro-5-isobutoxy-phenyl)-2-pyridyl]-7-methyl-1,7-diazaspiro[4.4]nonan-6-one hydrochloride]: the IC50 is 0.0794 µM under setting [1] and 3.16 µM under setting [2]. The like results for `Cc1cc(-c2ccc(C(F)(F)F)cc2)cc([C@H]2CC[C@@]3(CCNC3=O)N2C)n1` [Example 229, (2R,5S)-1-Methyl-2-[6-methyl-4-[4-(trifluoromethyl)phenyl]-2-pyridyl]-1,7-diazaspiro[4.4]nonan-6-one hydrochloride] were, in that order, 3.16 µM and 63.1 µM. In the case of `CC(C)CCn1cc(-c2ccnc([C@H]3CC[C@@]4(CCN(C)C4=O)N3)c2)cn1` [Example 170, (2R,5S)-2-[4-(1-Isopentylpyrazol-4-yl)-2-pyridyl]-7-methyl-1,7-diazaspiro[4.4]nonan-6-one hydrochloride], the IC50 is, setting by setting: under setting [1], 25.1 µM; under setting [2], 398 µM. Turning to `CC(C)Oc1ccc(-c2ccnc([C@@H]3CC[C@@]4(CCN(C)C4=O)N3)c2)cc1` [Example 161, (2S,5S)-2-[4-(4-Isopropoxyphenyl)-2-pyridyl]-7-methyl-1,7-diazaspiro[4.4]nonan-6-one hydrochloride], the IC50 reads like this: under setting [1], 39.8 µM; under setting [2], 126 µM. Take `Cc1cc(-c2ccc(C(F)(F)F)cc2)cc([C@@H]2CC[C@]3(CCNC3=O)N2C)n1` [Example 228, (2S,5R)-1-Methyl-2-[6-methyl-4-[4-(trifluoromethyl)phenyl]-2-pyridyl]-1,7-diazaspiro[4.4]nonan-6-one hydrochloride]: the IC50 was 3.16 µM under setting [1] and 20 µM under setting [2]. The like results for `COc1ccc(F)cc1-c1ccnc([C@H]2CC[C@@]3(CCN(C)C3=O)N2)c1` [Example 10, (2R,5S)-2-[4-(5-Fluoro-2-methoxy-phenyl)-2-pyridyl]-7-methyl-1,7-diazaspiro[4.4]nonan-6-one hydrochloride] were, in that order, 50.1 µM and 3980 µM.

Take `CN1CC[C@@]2(CC[C@H](c3cc(-c4cc(N5CCCC5=O)ccc4F)ccn3)N2)C1=O` [Example 160, (2R,5S)-2-[4-[2-Fluoro-5-(2-oxopyrrolidin-1-yl)phenyl]-2-pyridyl]-7-methyl-1,7-diazaspiro[4.4]nonan-6-one hydrochloride]: under setting [1], the IC50 is 1580 µM. Take `CN1CC[C@@]2(CC[C@H](c3cc(-c4ccccc4OC(F)(F)F)ccn3)N2)C1=O` [Example 3, (2R,5S)-7-Methyl-2-[4-[2-(trifluoromethoxy)-phenyl]-2-pyridyl]-1,7-diazaspiro-[4.4]nonan-6-one hydrochloride]: the IC50 by setting is: under setting [1], 7.94 µM; under setting [2], 63.1 µM. As to `Cc1cc(-c2cc(C(F)(F)F)ccc2C(N)=O)cc([C@@H]2CC[C@]3(CCN(C)C3=O)N2)n1` [Example 27, 2-[2-Methyl-6-[(2S,5R)-7-methyl-6-oxo-1,7-diazaspiro[4.4]nonan-2-yl]-4-pyridyl]-4-(trifluoromethyl)benzamide hydrochloride], under setting [1], the IC50 is 39800 µM. On to `COCc1cccc(-c2ccnc([C@H]3CC[C@@]4(CCN(C)C4=O)N3)c2)c1` [Example 168, (2R,5S)-2-[4-[3-(methoxymethyl)phenyl]-2-pyridyl]-7-methyl-1,7-diazaspiro[4.4]nonan-6-one hydrochloride], for which the IC50 was 158 µM under setting [1] and 316 µM under setting [2]. For `CN1CCC[C@]2(CC[C@H](c3cc(-c4ccc(F)cc4)ccn3)N2)C1=O` [Example 74, (2R,5S)-2-[4-(4-Fluoro-phenyl)-pyridin-2-yl]-7-methyl-1,7-diaza-spiro[4.5]decan-6-one hydrochloride], in that order: 7.94 µM and 63.1 µM. As to `CCc1cccc(-c2cc(C)nc([C@H]3CC[C@@]4(CCN(C)C4=O)N3)c2)c1F` [Example 206, (2R,5S)-2-[4-(3-Ethyl-2-fluoro-phenyl)-6-methyl-2-pyridyl]-7-methyl-1,7-diazaspiro[4.4]nonan-6-one hydrochloride], the IC50 is 10 µM under setting [1] and 63.1 µM under setting [2]. Take `O=C1NCCC[C@@]12CC[C@@H](c1cc(-c3ccc(F)cc3)ccn1)N2` [Example 110, (2S,5R)-2-[4-(4-Fluoro-phenyl)-pyridin-2-yl]-1,7-diaza-spiro[4.5]decan-6-one hydrochloride]: the IC50 is, setting by setting: under setting [1], 10 µM; under setting [2], 251 µM. For `CN1CC[C@]2(CC[C@H](c3cc(-c4ccc(C(F)(F)F)cc4)ccn3)N2)C1=O` [Example 55, (2R,5R)-7-Methyl-2-[4-(4-trifluoromethyl-phenyl)-pyridin-2-yl]-1,7-diaza-spiro[4.4]nonan-6-one hydrochloride], in that order: 20 µM and 100 µM. On to `CN1CC[C@@]2(CC[C@H](c3cc(-c4cc(OCCF)ccc4F)ccn3)N2)C1=O` [Example 251, (2R,5S)-2-[4-[2-Fluoro-5-(2-fluoroethoxyl)phenyl]-2-pyridyl]-7-methyl-1,7-diazaspiro[4.4]nonan-6-one hydrochloride], for which the IC50 under setting [1] is 39.8 µM and the IC50 under setting [2] is 398 µM. For `CCOc1ccc(F)c(-c2ccnc([C@H]3CC[C@]4(CC[C@H](C)NC4=O)N3)c2)c1` [Example 243, hydrochloride], in that order: 1.26 µM and 15.8 µM. The like results for `O=C1NCCC[C@@]12CC[C@H](c1cc(-c3ccc(C(F)(F)F)cc3)ccn1)N2` [Example 49, (2R,5R)-2-[4-(4-Trifluoromethyl-phenyl)-pyridin-2-yl]-1,7-diaza-spiro[4.5]decan-6-one hydrochloride] were, in that order, 3.98 µM and 50.1 µM.

Consider `CN1CC[C@@]2(CC[C@H](c3cc(-c4ccc(F)c(F)c4)ccn3)N2)C1=O` [Example 11, (2R,5S)-2-[4-(3,4-Difluorophenyl)-2-pyridyl]-7-methyl-1,7-diazaspiro[4.4]nonan-6-one hydrochloride], for which the IC50 runs as follows: under setting [1], 25.1 µM; under setting [2], 200 µM. For `CCOc1ccc(F)c(-c2cc(C)nc([C@@H]3CC[C@@]4(CCNC4=O)N3)c2)c1` [Example 105, (2S,5S)-2-[4-(5-Ethoxy-2-fluoro-phenyl)-6-methyl-2-pyridyl]-1,7-diazaspiro[4.4]nonan-6-one hydrochloride], the IC50 is 2 µM under setting [1] and 25.1 µM under setting [2]. The like results for `CN1CC[C@@]2(CC[C@@H](c3cc(-c4ccc(C(F)(F)F)cc4)c(OC(C)(C)C)cn3)N2)C1=O` [Example 63, (2S,5S)-2-[5-tert-Butoxy-4-[4-(trifluoromethyl)-phenyl]-2-pyridyl]-7-methyl-1,7-diazaspiro[4.4]nonan-6-one hydrochloride] were, in that order, 10 µM and 79.4 µM.

For `Cc1cc(-c2cc(F)ccc2F)cc([C@H]2CC[C@@]3(CCN(C)C3=O)N2)n1` [Example 211, (2R,5S)-2-[4-(2,5-Difluorophenyl)-6-methyl-2-pyridyl]-7-methyl-1,7-diazaspiro[4.4]nonan-6-one hydrochloride], the IC50 reads like this: under setting [1], 25.1 µM; under setting [2], 251 µM.

On to `CN1CCC[C@]2(CC[C@@H](c3cc(-c4ccc(F)cc4)ccn3)N2)C1=O` [Example 73, (2S,5S)-2-[4-(4-Fluoro-phenyl)-pyridin-2-yl]-7-methyl-1,7-diaza-spiro[4.5]decan-6-one hydrochloride], for which the IC50 by setting is: under setting [1], 20 µM; under setting [2], 200 µM. The like results for `Cc1c(-c2ccc(C(F)(F)F)cc2)ccnc1[C@H]1CC[C@]2(CCN(C)C2=O)N1` [Example 14, (2R,5R)-7-Methyl-2-[3-methyl-4-[4-(trifluoromethyl)phenyl]-2-pyridyl]-1,7-diazaspiro[4.4]nonan-6-one hydrochloride] were, in that order, 10 µM and 63.1 µM. As for `CCOc1cc(-c2ccnc([C@@H]3CC[C@@]4(CCN(C)C4=O)N3)c2)c(F)cc1C` [Example 150, (2S,5S)-2-[4-(5-Ethoxy-2-fluoro-4-methyl-phenyl)-2-pyridyl]-7-methyl-1,7-diazaspiro[4.4]nonan-6-one hydrochloride], the IC50 runs as follows: under setting [1], 12.6 µM; under setting [2], 126 µM. As for `CCOc1ccc(F)c(-c2cc(OC)nc([C@@H]3CC[C@]4(CCN(C)C4=O)N3)c2)c1` (single isomer, unassigned) [Example 248], the IC50 reads like this: under setting [1], 5.01 µM; under setting [2], 31.6 µM.

Consider `Cc1cc(-c2ccc(C(F)(F)F)cc2)cc([C@H]2CC[C@]3(CCNC3=O)N2)n1` [Example 96, (2R,5R)-2-[6-Methyl-4-[4-(trifluoromethyl)phenyl]-2-pyridyl]-1,7-diazaspiro[4.4]nonan-6-one hydrochloride], for which the IC50 runs as follows: under setting [1], 3.16 µM; under setting [2], 20 µM. Regarding `CCOc1ccc(-c2ccnc([C@H]3CC[C@@]4(CCN(C)C4=O)N3)c2)cc1C` [Example 167, (2R,5S)-2-[4-(4-Ethoxy-3-methyl-phenyl)-2-pyridyl]-7-methyl-1,7-diazaspiro[4.4]nonan-6-one hydrochloride], the IC50 under setting [1] was 39.8 µM and the IC50 under setting [2] is 39.8 µM.
